Data taken from ChEMBL document CHEMBL1770117 (Bioorg Med Chem Lett, 2011).

Columns and labels:
[1] = target: Metabotropic glutamate receptor 5 (Homo sapiens) (UniProt P41594); test: Positive allosteric modulator activity at mGluR5 receptor expressed in HEK293A cells assessed as maximum glutamate-induced response preincubated for 140 secs before glutamate challenge by calcium fluorescence assay; assay type: functional, cell-based; details: HEK293-A
[2] = target: T1, Metabotropic glutamate receptor 5 (Rattus norvegicus, UniProt P31424); test: Positive allosteric modulator activity at mGluR5 receptor expressed in HEK293A cells assessed as effect on glutamate-induced calcium flux preincubated for 140 secs before glutamate challenge by calcium fluorescence assay; assay type: functional, cell-based, HEK293-A
Target sequence in this assay (P31424 whole entry, looked up): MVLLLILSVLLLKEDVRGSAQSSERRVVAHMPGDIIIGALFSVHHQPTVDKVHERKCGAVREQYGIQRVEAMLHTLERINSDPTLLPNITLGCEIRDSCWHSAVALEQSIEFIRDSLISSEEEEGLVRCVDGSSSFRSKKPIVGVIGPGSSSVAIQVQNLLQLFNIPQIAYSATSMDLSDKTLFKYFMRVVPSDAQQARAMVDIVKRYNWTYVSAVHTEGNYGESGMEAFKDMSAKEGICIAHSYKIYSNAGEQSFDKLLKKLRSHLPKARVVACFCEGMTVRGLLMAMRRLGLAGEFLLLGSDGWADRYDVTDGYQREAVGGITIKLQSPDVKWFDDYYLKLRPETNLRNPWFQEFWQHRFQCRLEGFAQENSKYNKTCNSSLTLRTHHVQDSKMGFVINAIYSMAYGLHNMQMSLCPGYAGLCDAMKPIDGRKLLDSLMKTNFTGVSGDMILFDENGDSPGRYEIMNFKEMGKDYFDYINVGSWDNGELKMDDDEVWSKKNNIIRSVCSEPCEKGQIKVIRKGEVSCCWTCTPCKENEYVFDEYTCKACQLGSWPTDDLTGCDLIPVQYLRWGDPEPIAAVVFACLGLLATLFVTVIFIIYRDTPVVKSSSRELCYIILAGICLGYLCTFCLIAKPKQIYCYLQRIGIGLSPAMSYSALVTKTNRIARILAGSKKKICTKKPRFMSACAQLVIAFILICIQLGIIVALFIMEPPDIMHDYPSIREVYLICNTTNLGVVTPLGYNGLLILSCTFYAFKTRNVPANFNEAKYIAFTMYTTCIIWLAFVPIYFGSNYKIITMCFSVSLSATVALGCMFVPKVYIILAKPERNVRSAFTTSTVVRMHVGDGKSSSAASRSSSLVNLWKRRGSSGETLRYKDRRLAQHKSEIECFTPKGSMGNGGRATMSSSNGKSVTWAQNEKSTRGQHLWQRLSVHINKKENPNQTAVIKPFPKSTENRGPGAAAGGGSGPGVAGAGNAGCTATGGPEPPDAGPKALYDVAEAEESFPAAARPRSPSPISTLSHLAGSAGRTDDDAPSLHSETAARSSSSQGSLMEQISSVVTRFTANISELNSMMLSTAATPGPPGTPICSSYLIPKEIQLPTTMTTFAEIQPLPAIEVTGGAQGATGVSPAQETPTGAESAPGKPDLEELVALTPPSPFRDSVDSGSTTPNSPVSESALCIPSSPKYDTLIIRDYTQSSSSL

[3] = target: T1, Metabotropic glutamate receptor 5; test: Negative allosteric modulator activity at mGluR5 receptor expressed in HEK293A cells assessed as inhibition of glutamate-induced calcium flux preincubated for 140 secs before glutamate challenge by calcium fluorescence assay; assay type: functional, cell-based, HEK293-A
Target sequence in this assay (P31424 whole entry, looked up): as above

[4] = target: Metabotropic glutamate receptor 5 (Homo sapiens) (UniProt P41594); test: Negative allosteric modulator activity at mGluR5 receptor expressed in HEK293A cells assessed as maximum glutamate-induced response preincubated for 140 secs before glutamate challenge by calcium fluorescence assay; assay type: functional, cell-based; details: HEK293-A
[5] = target: T1, Metabotropic glutamate receptor 5; test: Positive allosteric modulator activity at rat mGlu5 receptor expressed in HEK293A cells assessed as increase in glutamate induced response; assay type: cell-based, HEK293-A
Target sequence in this assay (P31424 whole entry): as the sequence (P31424 whole entry, looked up) above

[6] = target: Metabotropic glutamate receptor 5 (Rattus norvegicus) (UniProt P31424); test: Positive allosteric modulator activity at rat mGlu5 receptor expressed in HEK293A cells assessed as fold shift in glutamate induced response relative to control; assay type: cell-based; details: HEK293-A
Chain of Metabotropic glutamate receptor 5 (Rattus norvegicus) (P31424 21-1203 limits assumed): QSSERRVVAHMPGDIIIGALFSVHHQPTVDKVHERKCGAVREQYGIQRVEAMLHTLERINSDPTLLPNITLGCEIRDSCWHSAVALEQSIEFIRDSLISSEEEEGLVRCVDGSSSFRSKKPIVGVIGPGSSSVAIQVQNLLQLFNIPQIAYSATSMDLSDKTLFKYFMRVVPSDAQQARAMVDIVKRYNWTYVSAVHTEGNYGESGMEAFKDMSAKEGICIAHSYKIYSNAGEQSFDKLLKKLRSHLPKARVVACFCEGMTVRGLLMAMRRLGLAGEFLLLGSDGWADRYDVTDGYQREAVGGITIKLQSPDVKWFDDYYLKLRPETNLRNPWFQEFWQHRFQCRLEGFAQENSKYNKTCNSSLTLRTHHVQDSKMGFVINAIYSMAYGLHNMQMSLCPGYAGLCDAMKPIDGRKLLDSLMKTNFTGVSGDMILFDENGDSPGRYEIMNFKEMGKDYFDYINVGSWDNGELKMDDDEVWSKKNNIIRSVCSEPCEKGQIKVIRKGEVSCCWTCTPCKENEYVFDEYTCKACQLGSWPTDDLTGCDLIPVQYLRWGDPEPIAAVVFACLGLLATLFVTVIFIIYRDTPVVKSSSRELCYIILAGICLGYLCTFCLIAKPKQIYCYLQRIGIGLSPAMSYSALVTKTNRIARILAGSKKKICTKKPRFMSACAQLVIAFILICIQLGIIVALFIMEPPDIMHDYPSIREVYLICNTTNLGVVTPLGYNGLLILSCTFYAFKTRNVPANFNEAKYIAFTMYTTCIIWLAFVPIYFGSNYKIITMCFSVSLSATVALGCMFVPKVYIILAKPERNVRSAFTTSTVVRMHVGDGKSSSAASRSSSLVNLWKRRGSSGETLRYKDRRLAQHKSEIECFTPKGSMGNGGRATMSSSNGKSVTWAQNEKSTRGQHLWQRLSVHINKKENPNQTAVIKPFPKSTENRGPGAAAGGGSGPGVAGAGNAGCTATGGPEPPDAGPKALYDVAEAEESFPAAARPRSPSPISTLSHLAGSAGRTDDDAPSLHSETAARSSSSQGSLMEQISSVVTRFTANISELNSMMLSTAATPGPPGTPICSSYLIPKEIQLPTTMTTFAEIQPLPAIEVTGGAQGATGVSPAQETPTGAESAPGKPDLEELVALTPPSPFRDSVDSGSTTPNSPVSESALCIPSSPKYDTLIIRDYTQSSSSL

[7] = target: T1, Metabotropic glutamate receptor 5; test: Ago-Positive allosteric modulator activity at mGluR5 receptor expressed in HEK293A cells assessed as effect on glutamate-induced calcium flux preincubated for 140 secs before glutamate challenge by calcium fluorescence assay; assay type: functional, cell-based, HEK293-A
Target sequence in this assay (P31424 whole entry, looked up): as the sequence (P31424 whole entry, looked up) above

[8] = target: Metabotropic glutamate receptor 5 (Homo sapiens) (UniProt P41594); test: Ago-Positive allosteric modulator activity at mGluR5 receptor expressed in HEK293A cells assessed as maximum glutamate-induced response preincubated for 140 secs before glutamate challenge by calcium fluorescence assay; assay type: functional, cell-based; details: HEK293-A
[9] = target: Metabotropic glutamate receptor 5 (Homo sapiens) (UniProt P41594); test: Partial antagonist activity at mGluR5 receptor expressed in HEK293A cells assessed as maximum glutamate-induced response preincubated for 140 secs before glutamate challenge by calcium fluorescence assay; assay type: functional, cell-based; design: scale not given: the % may be the effect or the level left; details: HEK293-A
[10] = target: T1, Metabotropic glutamate receptor 5; test: Partial antagonist activity at mGluR5 receptor expressed in HEK293A cells assessed as inhibition of glutamate-induced calcium flux preincubated for 140 secs before glutamate challenge by calcium fluorescence assay; assay type: functional, cell-based, HEK293-A
Target sequence in this assay (P31424 whole entry, looked up): as above

[11] = target: T1, Metabotropic glutamate receptor 5; test: Negative allosteric modulator activity at rat mGluR5 receptor expressed in HEK293A cells
Target sequence in this assay (P31424 whole entry): as the sequence (P31424 whole entry, looked up) above

Chain of Metabotropic glutamate receptor 5 (Homo sapiens) (P41594 21-1212 limits assumed): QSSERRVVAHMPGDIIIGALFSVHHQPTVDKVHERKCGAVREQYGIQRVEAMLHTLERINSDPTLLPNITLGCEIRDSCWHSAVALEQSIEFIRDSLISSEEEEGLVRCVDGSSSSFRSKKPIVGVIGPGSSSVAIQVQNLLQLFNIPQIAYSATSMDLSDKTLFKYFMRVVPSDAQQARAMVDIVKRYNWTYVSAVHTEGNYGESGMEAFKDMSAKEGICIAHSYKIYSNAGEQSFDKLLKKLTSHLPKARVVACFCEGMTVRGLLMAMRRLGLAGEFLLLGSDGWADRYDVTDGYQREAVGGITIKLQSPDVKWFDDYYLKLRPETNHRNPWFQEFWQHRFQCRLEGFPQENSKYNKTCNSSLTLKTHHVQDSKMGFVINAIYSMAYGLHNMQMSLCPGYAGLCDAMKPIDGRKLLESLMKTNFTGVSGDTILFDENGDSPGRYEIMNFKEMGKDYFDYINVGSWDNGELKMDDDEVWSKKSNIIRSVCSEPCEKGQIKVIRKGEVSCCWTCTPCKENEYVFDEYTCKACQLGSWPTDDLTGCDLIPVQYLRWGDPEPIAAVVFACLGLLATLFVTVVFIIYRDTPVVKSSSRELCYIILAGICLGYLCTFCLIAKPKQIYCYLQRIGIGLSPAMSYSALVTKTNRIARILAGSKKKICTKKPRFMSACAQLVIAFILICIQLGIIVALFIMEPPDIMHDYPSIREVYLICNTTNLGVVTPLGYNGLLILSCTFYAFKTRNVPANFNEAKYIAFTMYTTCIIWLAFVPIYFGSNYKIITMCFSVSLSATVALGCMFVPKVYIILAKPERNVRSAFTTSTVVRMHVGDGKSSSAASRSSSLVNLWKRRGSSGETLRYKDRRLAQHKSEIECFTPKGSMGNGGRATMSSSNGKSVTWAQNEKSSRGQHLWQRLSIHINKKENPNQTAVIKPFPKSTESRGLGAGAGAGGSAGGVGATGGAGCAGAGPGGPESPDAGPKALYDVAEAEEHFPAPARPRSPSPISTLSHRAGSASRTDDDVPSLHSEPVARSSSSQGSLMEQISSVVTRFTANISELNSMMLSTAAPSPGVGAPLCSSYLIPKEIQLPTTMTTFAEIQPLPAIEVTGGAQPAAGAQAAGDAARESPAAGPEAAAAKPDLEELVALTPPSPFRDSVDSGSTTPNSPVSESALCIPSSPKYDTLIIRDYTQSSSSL

Row | SMILES | Activity [1] [%] | EC50 [2] [nM] | IC50 [3] [nM] | Activity [4] [%] | also measured
1 | O=C(c1ccc(F)cc1F)N1CCCC[C@@H]1c1nc(-c2cccc(F)c2)no1 | 95 | 2900 | – | – | –
2 | O=C(C1CC1)N1CCCC1c1nc(-c2cccc(F)c2)no1 (centres undefined) | 68 | 2900 | – | – | –
3 | COc1cccc(-c2noc([C@H]3CCCCN3C(=O)C3CCC3)n2)c1 | – | – | 300 | – | –
4 | O=C(C1CCC1)N1CCC[C@H](c2nc(-c3cccs3)no2)C1 | – | – | 9300 | 67 | –
5 | O=C(c1ccc(F)cc1)N1CCC[C@H](c2nc(-c3cccs3)no2)C1 | – | – | – | – | EC50 [5]: 170 nM; fold change (FC) [6]: 20
6 | COc1cccc(-c2noc([C@H]3CCCN(C(=O)C4CCC4)C3)n2)c1 | – | – | 1800 | 2.1 | –
7 | O=C(c1cccc(F)c1)N1CCCC[C@@H]1c1nc(-c2cccc(F)c2)no1 | 59 | 460 | – | – | –
8 | Cc1cccc(-c2noc([C@H]3CCCCN3C(=O)c3cccs3)n2)c1 | – | – | 730 | 0.9 | –
9 | Cc1cccc(-c2noc([C@H]3CCCCN3C(=O)c3ccc(F)c(F)c3)n2)c1 | – | – | 10000 | 46 | –
10 | O=C(c1ccc(F)cc1)N1CCCC1c1nc(-c2cccc(F)c2)no1 (centres undefined) | 59 | 3600 | – | – | –
11 | O=C(C1CCC1)N1CCCC[C@@H]1c1nc(-c2cccc(F)c2)no1 (stereo in doubt; 22b) [listing 1 of 2 here] | 38 | – | – | – | –
12 | O=C(C1CCC1)N1CCC[C@@H](c2nc(-c3cccc(F)c3)no2)C1 | – | – | > 10000 | 60 | –
13 | Cc1cccc(-c2noc([C@H]3CCCCN3C(=O)c3cccc(F)c3)n2)c1 | – | – | 4700 | 16 | –
14 | O=C(C1CCC1)N1CCCC[C@H]1c1nc(-c2ccccn2)no1 | – | – | 10000 | – | –
15 | O=C(c1ccc(F)c(F)c1)N1CCCC1c1nc(-c2cccc(F)c2)no1 (centres undefined) | 62 | 3700 | – | – | –
16 | O=C(c1cccs1)N1CCCC1c1nc(-c2cccc(F)c2)no1 (centres undefined) | 60 | 430 | – | – | –
17 | O=C(C1CCC1)N1CCC[C@H](c2nc(-c3cccc(Cl)c3)no2)C1 | – | – | 200 | 2.4 | –
18 | O=C(C1CCCC1)N1CCCC[C@@H]1c1nc(-c2cccc(F)c2)no1 | – | – | – | – | EC50 [7]: 310 nM; Activity [8]: 80%
19 | Cc1cccc(-c2noc([C@@H]3CCCN(C(=O)C4CCC4)C3)n2)c1 | – | – | 4700 | 14 | –
20 | Cc1cccc(-c2noc([C@H]3CCCCN3C(=O)C3CCC3)n2)c1 | – | – | 300 | – | –
21 | O=C(C1CCC1)N1CCC[C@H](c2nc(-c3cccc(F)c3)no2)C1 | – | – | 2400 | 31 | –
22 | O=C(C1CCC1)N1CCCC[C@@H]1c1nc(-c2cccs2)no1 | – | – | 3500 | – | –
23 | COc1cccc(-c2noc([C@@H]3CCCN(C(=O)C4CCC4)C3)n2)c1 | – | – | > 10000 | 54 | –
24 | Cc1cccc(-c2noc([C@H]3CCCN(C(=O)C4CCC4)C3)n2)c1 | – | – | 700 | 2.5 | –
25 | O=C(C1CCC1)N1CCC[C@@H](c2nc(-c3cccc(Cl)c3)no2)C1 | – | – | 3100 | 18 | –
26 | O=C(C1CCCCC1)N1CCCC[C@@H]1c1nc(-c2cccc(F)c2)no1 | 58 | 3500 | – | – | –
27 | O=C(c1ccc(F)c(F)c1)N1CCCC[C@@H]1c1nc(-c2cccc(F)c2)no1 | 93 | 1400 | – | – | –
28 | O=C(C1CCC1)N1CCCC1c1nc(-c2cccc(F)c2)no1 (stereo in doubt; 24b) [listing 1 of 2 here] | – | 1500 | – | – | –

Row | SMILES | Activity [1] [%] | EC50 [2] [nM] | IC50 [3] [nM] | Activity [4] [%] | also measured
29 | Cc1cccc(-c2noc([C@H]3CCCCN3C(=O)C3CC3)n2)c1 | – | – | – | – | Activity [9]: 16%; IC50 [10]: 280 nM
30 | O=C(C1CCC1)N1CCCC1c1nc(-c2ccc(F)cc2)no1 (racemic) | 72 | 2700 | – | – | –
31 | O=C(C1CCC1)N1CCCC[C@H]1c1nc(-c2cccs2)no1 | – | – | 2600 | – | –
32 | O=C(c1cccs1)N1CCCC[C@@H]1c1nc(-c2cccc(F)c2)no1 | 34 | – | – | – | –
33 | Cc1cccc(-c2noc([C@@H]3CCCCN3C(=O)C3CCC3)n2)c1 | – | – | 500 | – | –
34 | O=C(C1CC1)N1CCCC[C@@H]1c1nc(-c2cccc(F)c2)no1 | – | – | – | – | EC50 [7]: 80 nM; Activity [8]: 70%
35 | O=C(c1ccc(F)cc1F)N1CCC[C@H](c2nc(-c3ccccn3)no2)C1 | – | – | – | – | EC50 [5]: 240 nM; fold change (FC) [6]: 14
36 | Cc1ccc(C#Cc2cncnc2)cc1 | – | – | – | – | fold change (FC) [6]: 4.2
37 | O=C(c1cccc(F)c1)N1CCCC1c1nc(-c2cccc(F)c2)no1 (centres undefined) | 47 | 2600 | – | – | –
38 | COc1cccc(-c2noc([C@@H]3CCCCN3C(=O)C3CCC3)n2)c1 | – | – | 80 | – | –
39 | O=C(C1CCC1)N1CCC[C@@H]1c1nc(-c2cccc(F)c2)no1 | 68.4 | 530 | – | – | –
40 | Cc1cccc(-c2noc([C@H]3CCCCN3C(=O)c3ccc(F)cc3)n2)c1 | – | – | 10000 | 47 | –
41 | O=C(C1CCC1)N1CCCC1c1nc(-c2cccc(F)c2)no1 (racemic) | 64 | – | – | – | –
42 | O=C(C1CCC1)N1CCC[C@H]1c1nc(-c2cccc(F)c2)no1 | 57.3 | 7000 | – | – | –
43 | O=C(C1CCC1)N1CCCC[C@H]1c1nc(-c2cccc(F)c2)no1 | – | 700 | – | – | –
44 | O=C(c1ccc(F)cc1F)N1CCCC1c1nc(-c2cccc(F)c2)no1 (centres undefined) | 61 | 10000 | – | – | –
45 | O=C(C1CCC1)N1CCC[C@@H](c2nc(-c3ccccn3)no2)C1 | – | – | 9900 | 19 | –
46 | Cc1cccc(-c2noc(C3CCCN3C(=O)C3CCC3)n2)c1 (racemic) | – | – | 2400 | 34 | –
47 | O=C(C1CCC1)N1CCCC[C@@H]1c1nc(-c2cccc(F)c2)no1 (stereo in doubt; (R)-20c) | – | 600 | – | – | –
48 | Cc1cccc(-c2noc([C@H]3CCCCN3C(=O)C3CCCCC3)n2)c1 | – | – | 2500 | 9.2 | –
49 | O=C(C1CCC1)N1CCCC[C@@H]1c1nc(-c2cccc(F)c2)no1 (stereo in doubt; 22b) [listing 2 of 2 here] | – | 650 | – | – | –
50 | O=C(C1CCCC1)N1CCCC1c1nc(-c2cccc(F)c2)no1 (centres undefined) | 75 | 1000 | – | – | –
51 | O=C(C1CCC1)N1CCCC1c1nc(-c2cccc(F)c2)no1 (stereo in doubt; 24b) [listing 2 of 2 here] | 63 | – | – | – | –
52 | O=C(C1CCC1)N1CCC[C@H](c2nc(-c3ccccn3)no2)C1 | – | – | > 10000 | 33 | IC50 [11]: 8700 nM
53 | Cc1cccc(-c2noc([C@H]3CCCCN3C(=O)C3CCCC3)n2)c1 | – | – | – | – | Activity [9]: 24%; IC50 [10]: 600 nM
54 | O=C(c1ccc(F)cc1)N1CCCC[C@@H]1c1nc(-c2cccc(F)c2)no1 | 91 | – | – | – | –
55 | O=C(C1CCC1)N1CCCC1c1nc(-c2cccc(Cl)c2)no1 (racemic) | – | – | 10000 | 25 | –
